Experimental data: patent US11155557B2, “Pyrazolopyrimidine compounds and methods of use thereof” (Genentech, Inc., priority 2016, dated 2021)
Where two headings read alike, the source gives them in different places.

What was measured:
[1] = target: isolated recombinant JAK1 kinase domain (Homo sapiens (Human), UniProt P23458); test: JAK1 enzyme assay (Caliper LabChip, Ki); assay type: biochemical
Method: The activity of the isolated recombinant JAK1 and JAK2 kinase domain was measured by monitoring phosphorylation of a peptide derived from JAK3 ([…] fluorescently labeled on the N-terminus with 5-carboxyfluorescein) using the Caliper LabChip R technology (Caliper Life Sciences, Hopkinton, Mass.).

[2] = target: isolated recombinant JAK2 kinase domain (Homo sapiens (Human), UniProt O60674); test: JAK2 enzyme assay (Caliper LabChip, Ki); settings: read-out: JAK2 Ki
[3] = tested on: JAK1-dependent STAT6 phosphorylation in BEAS-2B human bronchial epithelial cells; test: JAK1 pathway assay: IL-13 stimulated STAT6 phosphorylation in BEAS-2B cells; assay type: cell-based; settings: BEAS-2B cells, IL-13 stimulation, read-out: IL-13 p-STAT6 BEAS-2B IC50
Method: JAK1 Pathway Assay in Cell Lines was Carried Out as Follows:
Inhibitor potency (EC50) was determined in cell-based assays designed to measure JAK1 dependent STAT phosphorylation.
In one assay approach, TF-1 human erythroleukemia cells obtained from the American Type Culture Collection (ATCC; Manassas, Va.) were used to measure JAK1-dependent STAT6 phosphorylation downstream of IL-13 stimulation. Prior to use in the assays, TF-1 cells were starved of GM-CSF overnight in OptiMEM medium (Life Technologies, Grand Island, N.Y.) supplemented with 0.5% charcoal/dextran stripped fetal bovine serum (FBS), 0.1 mM non-essential amino acids (NEAA), and 1 mM sodium pyruvate. The assays were run in 384-well plates in serum-free OptiMEM medium using 300,000 cells per well. In a second assay approach, BEAS-2B human bronchial epithelial cells obtained from ATCC were plated at 100,000 cells per well of a 96-well plate one day prior to the experiment. The BEAS-2B assay was run in complete growth medium (bronchial epithelial basal medium plus bulletkit; Lonza; Basel, Switzerland).
Test compounds were serially diluted 1:2 in DMSO and then diluted 1:50 in medium just before use. Diluted compounds were added to the cells, for a final DMSO concentration of 0.2%, and incubated for 30 min (for the TF-1 assay) or 1 hr (for the BEAS-2B assay) at 37° C. Then, cells were stimulated with human recombinant cytokine at their respective EC90 concentrations, as previously determined for each individual lot. Cells were stimulated with IL-13 (R&D Systems, Minneapolis, Minn.) for 15 min at 37° C. […] The resultant samples were frozen in the plates at −80° C. Compound mediated inhibition of STAT6 phosphorylation was measured in the cell lysates using MesoScale Discovery (MSD) technology (Gaithersburg, Md.).

isolated recombinant JAK1 kinase domain, sequence (P23458 875-1153): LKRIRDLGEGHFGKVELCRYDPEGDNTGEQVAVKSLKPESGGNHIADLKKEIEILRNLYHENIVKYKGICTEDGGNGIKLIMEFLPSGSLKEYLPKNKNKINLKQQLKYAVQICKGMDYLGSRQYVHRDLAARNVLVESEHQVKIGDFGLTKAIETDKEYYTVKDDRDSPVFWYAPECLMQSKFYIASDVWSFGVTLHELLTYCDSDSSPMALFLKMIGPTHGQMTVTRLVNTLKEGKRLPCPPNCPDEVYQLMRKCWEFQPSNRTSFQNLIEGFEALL
isolated recombinant JAK2 kinase domain, sequence (O60674 849-1124): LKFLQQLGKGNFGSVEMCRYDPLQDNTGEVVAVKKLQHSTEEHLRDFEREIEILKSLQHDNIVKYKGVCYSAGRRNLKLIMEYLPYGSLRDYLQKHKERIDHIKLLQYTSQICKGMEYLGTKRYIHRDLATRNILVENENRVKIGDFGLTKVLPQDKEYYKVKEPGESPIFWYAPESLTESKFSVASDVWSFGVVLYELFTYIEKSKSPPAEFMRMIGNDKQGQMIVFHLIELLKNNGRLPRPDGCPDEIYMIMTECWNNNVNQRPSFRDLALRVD

| SMILES | Ki [1] [nM] | Ki [2] [nM] | IC50 ([3]; Homo sapiens, BEAS-2B) [nM] | IC50 [3] [nM] |
| --- | --- | --- | --- | --- |
| O=C(Nc1cn(C2CCCNC2)nc1-c1cc2ccccc2cc1OC(F)F)c1cnn2cccnc12 (racemic) [Example 5, N-(3-(3-(difluoromethoxy)naphthalen-2-yl)-1-(piperidin-3-yl)-1H-pyrazol-4-yl)pyrazolo[1,5-a]pyrimidine-3-carboxamide] | 1.21 | 0.78 | 31 | – |
| O=C(Nc1c[nH]nc1-c1cc2c(cc1OC(F)F)CC(CO)O2)c1cnn2cccnc12 (racemic) [Example 15, N-(3-(5-(difluoromethoxy)-2-(hydroxymethyl)-2,3-dihydrobenzofuran-6-yl)-1H-pyrazol-4-yl)pyrazolo[1,5-a]pyrimidine-3-carboxamide] | 0.69 | 0.24 | 143 | – |
| NCC1CNc2cc(OC(F)F)c(-c3n[nH]cc3NC(=O)c3cnn4cccnc34)cc2S1 (racemic) [Example 38, N-[3-[2-(aminomethyl)-6-(difluoromethoxy)-3,4-dihydro-2H-1,4-benzothiazin-7-yl]-1H-pyrazol-4-yl]pyrazolo[1,5-a]pyrimidine-3-carboxamide] | 0.33 | 0.29 | > 1000 | – |
| CC1CSc2cc(-c3n[nH]cc3NC(=O)c3cnn4cccnc34)c(OC(F)F)cc2N1 (racemic) [Example 41, N-[3-[6-(difluoromethoxy)-3-methyl-3,4-dihydro-2H-1,4-benzothiazin-7-yl]-1H-pyrazol-4-yl]pyrazolo[1,5-a]pyrimidine-3-carboxamide] | 0.08 | 0.06 | 4 | – |
| CN1CCCC(n2cc(NC(=O)c3cnn4cccnc34)c(-c3cc4cn[nH]c4cc3OC(F)F)n2)C1 (racemic) [Example 74, N-[3-[6-(difluoromethoxy)-1H-indazol-5-yl]-1-(1-methyl-3-piperidyl)pyrazol-4-yl]pyrazolo[1,5-a]pyrimidine-3-carboxamide] | 1.63 | 0.98 | 18 | – |
| CN1CCCC1Cn1cc(NC(=O)c2cnn3cccnc23)c(-c2cc3cn[nH]c3cc2OC(F)F)n1 (racemic) [Example 75, N-[3-[6-(difluoromethoxy)-1H-indazol-5-yl]-1-[(1-methylpyrrolidin-2-yl)methyl]pyrazol-4-yl]pyrazolo[1,5-a]pyrimidine-3-carboxamide] | 0.31 | 0.26 | 11 | – |
| CC1CNc2cc(OC(F)F)c(-c3nn(CCN)cc3NC(=O)c3cnn4cccnc34)cc2S1 (racemic) [Example 80, N-[1-(2-aminoethyl)-3-[6-(difluoromethoxy)-2-methyl-3,4-dihydro-2H-1,4-benzothiazin-7-yl]pyrazol-4-yl]pyrazolo[1,5-a]pyrimidine-3-carboxamide] | 0.16 | 0.17 | 13 | – |
| CC1CNc2cc(OC(F)F)c(-c3n[nH]cc3NC(=O)c3cnn4cccnc34)cc2S1 (single isomer, unassigned) [Example 93, N-[3-[6-(difluoromethoxy)-2-methyl-3,4-dihydro-2H-1,4-benzothiazin-7-yl]-1H-pyrazol-4-yl]pyrazolo[1,5-a]pyrimidine-3-carboxamide] | 0.07 | 0.03 | 6 | – |
| CC1Sc2cc(-c3n[nH]cc3NC(=O)c3cnn4cccnc34)c(OC(F)F)cc2NC1=O (single isomer, unassigned) [Example 95, N-[3-[6-(difluoromethoxy)-2-methyl-3-oxo-4H-1,4-benzothiazin-7-yl]-1H-pyrazol-4-yl]pyrazolo[1,5-a]pyrimidine-3-carboxamide] | 0.06 | 0.03 | 60 | – |
| CC1Sc2cc(-c3n[nH]cc3NC(=O)c3cnn4cccnc34)c(OC(F)F)cc2NC1=O (single isomer, unassigned) [Example 96, N-[3-[6-(difluoromethoxy)-2-methyl-3-oxo-4H-1,4-benzothiazin-7-yl]-1H-pyrazol-4-yl]pyrazolo[1,5-a]pyrimidine-3-carboxamide] | 0.07 | 0.05 | – | 70 |
| CC1Sc2cc(-c3nn(C)cc3NC(=O)c3cnn4cccnc34)c(OC(F)F)cc2NC1=O (single isomer, unassigned) [Example 97, N-[3-[6-(difluoromethoxy)-2-methyl-3-oxo-4H-1,4-benzothiazin-7-yl]-1-methyl-pyrazol-4-yl]pyrazolo[1,5-a]pyrimidine-3-carboxamide] | 0.13 | 0.09 | 7 | – |
| CC1Sc2cc(-c3nn(C)cc3NC(=O)c3cnn4cccnc34)c(OC(F)F)cc2NC1=O (single isomer, unassigned) [Example 98, N-[3-[6-(difluoromethoxy)-2-methyl-3-oxo-4H-1,4-benzothiazin-7-yl]-1-methyl-pyrazol-4-yl]pyrazolo[1,5-a]pyrimidine-3-carboxamide] | 0.11 | 0.07 | – | 6 |
| CC1CNc2cc(OC(F)F)c(-c3nn(CC(=O)N4CCCCC4)cc3NC(=O)c3cnn4cccnc34)cc2S1 (single isomer, unassigned) [Example 101, N-[3-[6-(difluoromethoxy)-2-methyl-3,4-dihydro-2H-1,4-benzothiazin-7-yl]-1-[2-oxo-2-(1-piperidyl)ethyl]pyrazol-4-yl]pyrazolo[1,5-a]pyrimidine-3-carboxamide] | 0.23 | 0.16 | 13 | – |
| CC1CNc2cc(OC(F)F)c(-c3nn(CC(=O)N4CCCCC4)cc3NC(=O)c3cnn4cccnc34)cc2S1 (single isomer, unassigned) [Example 102, N-[3-[6-(difluoromethoxy)-2-methyl-3,4-dihydro-2H-1,4-benzothiazin-7-yl]-1-[2-oxo-2-(1-piperidyl)ethyl]pyrazol-4-yl]pyrazolo[1,5-a]pyrimidine-3-carboxamide] | 0.2 | 0.19 | – | 12 |
| CC1CNc2cc(OC(F)F)c(-c3nn(CC(=O)N4CC=CCC4)cc3NC(=O)c3cnn4cccnc34)cc2S1 (single isomer, unassigned) [Example 103, N-[3-[6-(difluoromethoxy)-2-methyl-3,4-dihydro-2H-1,4-benzothiazin-7-yl]-1-[2-(3,6-dihydro-2H-pyridin-1-yl)-2-oxo-ethyl]pyrazol-4-yl]pyrazolo[1,5-a]pyrimidine-3-carboxamide] | 0.2 | 0.14 | 12 | – |
| CC1CNc2cc(OC(F)F)c(-c3nn(CC(=O)N4CC=CCC4)cc3NC(=O)c3cnn4cccnc34)cc2S1 (single isomer, unassigned) [Example 104, N-[3-[6-(difluoromethoxy)-2-methyl-3,4-dihydro-2H-1,4-benzothiazin-7-yl]-1-[2-(3,6-dihydro-2H-pyridin-1-yl)-2-oxo-ethyl]pyrazol-4-yl]pyrazolo[1,5-a]pyrimidine-3-carboxamide] | 0.15 | 0.16 | – | 11 |
| CC1CNc2cc(OC(F)F)c(-c3nn(CC(=O)N(C)C)cc3NC(=O)c3cnn4cccnc34)cc2S1 (single isomer, unassigned) [Example 105, N-[3-[6-(difluoromethoxy)-2-methyl-3,4-dihydro-2H-1,4-benzothiazin-7-yl]-1-[2-(dimethylamino)-2-oxo-ethyl]pyrazol-4-yl]pyrazolo[1,5-a]pyrimidine-3-carboxamide] | 0.19 | 0.13 | 24 | – |
| O=C(O)Cn1cc(NC(=O)c2cnn3cccnc23)c(-c2cc3ccccc3cc2OC(F)F)n1 [Example 2, 2-(3-(3-(difluoromethoxy)naphthalen-2-yl)-4-(pyrazolo[1,5-a]pyrimidine-3-carboxamido)-1H-pyrazol-1-yl)acetic acid] | 0.64 | – | 128 | – |
| CC(C)(C)OC(=O)N1CCC(C(=O)Cn2ncc3cc(-c4n[nH]cc4NC(=O)c4cnn5cccnc45)c(OC(F)F)cc32)CC1 [Example 18, tert-butyl 4-(2-(6-(difluoromethoxy)-5-(4-(pyrazolo[1,5-a]pyrimidine-3-carboxamido)-1H-pyrazol-3-yl)-1H-indazol-1-yl)acetyl)piperidine-1-carboxylate] | 8.02 | 2.59 | – | – |
| COc1cc2sc(C(N)=O)cc2cc1-c1n[nH]cc1NC(=O)c1cnn2cccnc12 [Example 23, N-(3-(2-carbamoyl-6-methoxybenzo[b]thiophen-5-yl)-1H-pyrazol-4-yl)pyrazolo[1,5-a]pyrimidine-3-carboxamide] | 9.27 | 6.01 | – | – |
